Results taken from US20260184727A1, “SOLID FORMS OF MACROCYCLIC COMPOUNDS AND USES THEREOF” (AMGEN INC., priority 2024, published 2026).
In brackets after ≈: the same amount, converted by molar mass. Like-named read-outs stand apart in the source and are kept apart here. Values belong to the compound of their own block, whether it stands above or below them.

Columns and labels:
[1] = Moisture sorption analysis (DVS); assay type: physicochemical; conditions: for moisture uptake (DVS): 25° C.
[2] = Moisture sorption analysis (DVS); assay type: physicochemical; conditions: for hygroscopicity by DVS isotherm / moisture uptake (DVS): 25° C.
Method: Moisture Sorption Analysis-Moisture sorption isotherm was determined using a DVS Endeavour at 25° C. in an aluminum pan with water as the solvent (closed loop) and nitrogen gas flow at 200 sccm. The sample was analyzed from 40% to 0% to 90% to 0% to 90% to 0% to 40% RH in 5% RH steps.

[3] = PK properties of Form 1E in male dogs under fasted and fed conditions; assay type: in vivo; conditions: for AUC(0-inf) / AUC(0-t) / CL/F / Cmax / MRT / Tmax / half-life: male, dog, plasma, po; for half-life: read-out: t1/2, z (converted)
[4] = Single dose dog PK, Form 1E compared to Compound A free base; assay type: in vivo, dogs; conditions: FIG. 5C
Method: The pharmacokinetic (PK) properties of Form 1E was evaluated in dogs.

[5] = Physical and chemical stability of Form 1E; assay type: physicochemical
[6] = Comparative solubilities of Form 1 and Form 1E in biorelevant media; assay type: physicochemical; conditions: for solubility: read-out: Solubility Conc
[7] = 30 mg/kg, pH 2, male dogs, Study A, 30.0 mg/kg p.o., Vehicle 1 (water/malonic acid pH 2.0), Fasted
[8] = 30 mg/kg, pH 2, male dogs, Study A, 30.0 mg/kg p.o., Vehicle 1 (water/malonic acid pH 2.0), Fed (kibble)
[9] = 50 mg/kg, pH 7, male dogs, Study B, Vehicle 2 (water/MSA pH7.0), Fasted
[10] = 50 mg/kg, pH 7, male dogs, Study B, Vehicle 2 (water/MSA pH7.0), Fed (high fat)

SMILES: O=C1OCCCc2c(Cl)cc3[nH]ncc3c2-c2ncc3c(nc(OC[C@@]45CCCN4C[C@H](F)C5)nc3c2F)N2CCOC[C@H](C2)O1 [Form 1]
solubility ([6]; FaSSGF, pH 2.06, fassgf or other biorelevant): 4420 µg/mL (≈ 6740 µM)
solubility ([6]; FaSSIF, pH 7.15, fassif): 35 µg/mL (≈ 53.3 µM)
solubility ([6]; FeSSIF, pH 5.51, fessif): 560 µg/mL (≈ 854 µM)
solubility ([6]; PBS, pH 7.04, aqueous buffer): 10 µg/mL (≈ 15.2 µM)
Equilibrium crystal form ([6]; solubility sample in FaSSGF): Form 1
Equilibrium crystal form ([6]; solubility sample in FaSSIF): Form 1
Equilibrium crystal form ([6]; solubility sample in FeSSIF): Form 1
Equilibrium crystal form ([6]; solubility sample in H2O): Form 1
Equilibrium crystal form ([6]; solubility sample in PBS): Form 1
solubility ([6]; water, H2O, pH 8.73): 0.3 µg/mL (≈ 0.457 µM)

SMILES: O=C1OCCCc2c(Cl)cc3[nH]ncc3c2-c2ncc3c(nc(OC[C@@]45CCCN4C[C@H](F)C5)nc3c2F)N2CCOC[C@H](C2)O1 [Form A1-A]
hygroscopicity as per TGA and XRPD analysis ([1]; judged from TGA and XRPD, no DVS reported): hygroscopic

SMILES: O=C1OCCCc2c(Cl)cc3[nH]ncc3c2-c2ncc3c(nc(OC[C@@]45CCCN4C[C@H](F)C5)nc3c2F)N2CCOC[C@H](C2)O1 [Form C-P]
hygroscopicity by DVS isotherm [2]: hygroscopic
moisture uptake (DVS) ([2]; at 80% RH): 3.08 wt. %

Further lines, with some results ahead:

moisture uptake (DVS) ([1]; at 95% relative humidity): 5.4 wt. %
hygroscopicity by DVS isotherm [2]: hygroscopic
SMILES: O=C1OCCCc2c(Cl)cc3[nH]ncc3c2-c2ncc3c(nc(OC[C@@]45CCCN4C[C@H](F)C5)nc3c2F)N2CCOC[C@H](C2)O1 [Form 1A]

moisture uptake (DVS) ([1]; at 95% relative humidity): 4.7 wt. %
hygroscopicity by DVS isotherm [2]: hygroscopic
SMILES: O=C1OCCCc2c(Cl)cc3[nH]ncc3c2-c2ncc3c(nc(OC[C@@]45CCCN4C[C@H](F)C5)nc3c2F)N2CCOC[C@H](C2)O1 [Form 1B]

plasma exposure (Cmax and AUC), fed versus fasted conditions ([3]; dogs, FIGS. 5D and 5E, kibble or high fat diet): did not show a difference
AUC(0-inf) [3, 7]: 14.2 µM·h
AUC(0-t) [3, 7]: 14.1 µM·h
CL/F [3, 7]: 73.5 mL/min/kg
Cmax [3, 7]: 5820 nM
MRT [3, 7]: 3.16 h
Tmax [3, 7]: 0.312 h
half-life [3, 7]: 2.67 h
AUC(0-inf) [3, 8]: 17 µM·h
AUC(0-t) [3, 8]: 17 µM·h
CL/F [3, 8]: 55.8 mL/min/kg
Cmax [3, 8]: 4290 nM
MRT [3, 8]: 4.14 h
Tmax [3, 8]: 1.62 h
half-life [3, 8]: 2.96 h
half-life ([3]; 50 mg/kg, pH 7, male dogs, Study B, 50.0 mg/kg, Vehicle 2 (water/MSA pH7.0), Fasted): 3.47 h
half-life ([3]; 50 mg/kg, pH 7, male dogs, Study B, 50.0 mg/kg, Vehicle 2 (water/MSA pH7.0), Fed (high fat)): 4.83 h
AUC(0-inf) [3, 9]: 3.54 µM·h
AUC(0-t) [3, 9]: 3.53 µM·h
CL/F [3, 9]: 783 mL/min/kg
Cmax [3, 9]: 1350 nM
MRT [3, 9]: 3.79 h
Tmax [3, 9]: 0.9 h
AUC(0-inf) [3, 10]: 3.91 µM·h
AUC(0-t) [3, 10]: 3.89 µM·h
CL/F [3, 10]: 1160 mL/min/kg
Cmax [3, 10]: 1050 nM
MRT [3, 10]: 4.26 h
Tmax [3, 10]: 1.5 h
improvement in plasma concentration compared to Compound A free base [4]: ~2 ×
physical stability ([5]; accelerated conditions): physically stable
chemically stable for ([5]; at 5° C.): more than 2 years
solubility ([6]; FaSSGF, pH 1.99, fassgf or other biorelevant): 5990 µg/mL (≈ 9130 µM)
solubility ([6]; FaSSIF, pH 4.86, fassif): 1730 µg/mL (≈ 2640 µM)
solubility ([6]; FeSSIF, pH 4.58, fessif): 2500 µg/mL (≈ 3810 µM)
solubility ([6]; PBS, pH 4.55, aqueous buffer): 1300 µg/mL (≈ 1980 µM)
solubility in several media relative to Form 1 ([6]; several media, compared with Form 1): higher solubility
Equilibrium crystal form ([6]; solubility sample in FaSSGF): Form 1E
Equilibrium crystal form ([6]; solubility sample in FaSSIF): Form 1E
Equilibrium crystal form ([6]; solubility sample in FeSSIF): Form 1E
Equilibrium crystal form ([6]; solubility sample in H2O): Form 1E
Equilibrium crystal form ([6]; solubility sample in PBS): Form 1E
solubility ([6]; water, H2O, pH 3.93): 7760 µg/mL (≈ 11800 µM)
hygroscopicity by DVS isotherm [2]: non-hygroscopic
moisture uptake (DVS) ([2]; at 90% relative humidity): 0.6 wt. %
hygroscopicity compared to all other forms ([2]; compared to all other solid forms of Compound A): lowest hygroscopicity
SMILES: O=C1OCCCc2c(Cl)cc3[nH]ncc3c2-c2ncc3c(nc(OC[C@@]45CCCN4C[C@H](F)C5)nc3c2F)N2CCOC[C@H](C2)O1 [Form 1E]
emesis ([3]; dogs, prior studies, 50 mg/kg and a high fat diet): suffered from emesis

behaviour in DVS at 95% relative humidity ([1]; at 95% relative humidity): deliquescence
hygroscopicity by DVS isotherm [2]: hygroscopic
moisture uptake (DVS) ([2]; at 85% relative humidity): 4.0 wt. %
SMILES: O=C1OCCCc2c(Cl)cc3[nH]ncc3c2-c2ncc3c(nc(OC[C@@]45CCCN4C[C@H](F)C5)nc3c2F)N2CCOC[C@H](C2)O1 [Form C1]
